Consider one compound from patent publication US20040009126A1, “Inhalation system for prevention and treatment of intracellular infections” (priority 2002, published 2004).

The conditions of the data set: mice, intratracheal administration, lungs. From the text: FIG. 2 is a graphical representation of the biodistribution of ciprofloxacin in the lungs upon administration of ciprofloxacin in liposomal form by inhalation and in free form by inhalation and orally.
The distribution following IT administration was compared with the distribution obtained in the lungs following an oral delivery of ciprofloxicin.

Take `O=C(O)c1cn(C2CC2)c2cc(N3CCNCC3)c(F)cc2c1=O` [free ciprofloxicin, ciprofloxicin]: the “lung level of ciprofloxicin over time” value is reported as “negligible after one hour”.
